PubChem BioAssay AID449764 (Southern Research Specialized Biocontainment Screening …, 2010)

Tested on: Mycobacterium tuberculosis H37Rv growth inhibition, no glycerol
Assay: Confirmatory growth inhibition assay, Mycobacterium tuberculosis H37Rv, absence of glycerol (AID 449764);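 note: growth read after 7 days of incubation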
Conditions: for IC90: measured here: IC90 growth inhibition

SMILES | IC50 | IC90
CCCOc1cccc(-c2nn(-c3ccccc3)cc2/C=C(\C#N)C(=O)NCCCn2ccnc2)c1 | 63.2 µM | 78.3 µM
CCOc1ccc(NC(=O)c2sc3nc(C)nc(N4CCOCC4)c3c2C)cc1 | 30.3 µM | 57 µM
Oc1cc(NCc2cccnc2)ccc1-c1nc2ccccc2o1 | 31.6 µM | 61.3 µM
CCCCOc1ccc(C(=O)Oc2ccc(C)nc2)cc1 | 54.8 µM | 78.8 µM
C/C(=N\Nc1ccc([N+](=O)[O-])cc1)c1cccc(N)c1 | 61.2 µM | 88.9 µM
COc1ccc(C2=Nn3c(nnc3-c3ccccc3F)SC2)cc1OC1CCCC1 | 19.5 µM | 25.4 µM
O=S(=O)(Nc1ccc2[nH]ncc2c1)c1ccccc1Cl | 11.3 µM | 17.1 µM
C=CCOc1c(Br)cc(CNc2nccs2)cc1OC | 31.4 µM | 48.2 µM
Oc1ccc2ccccc2c1N=Nc1nccs1 | 1.96 µM | 3.06 µM
CC(OC(=O)c1cnc2ccccc2n1)c1ccccc1Cl (stereo not drawn) | 22 µM | 34 µM
COCC(=O)O[C@]1(CCN(C)CCCc2nc3ccccc3[nH]2)CCc2cc(F)ccc2[C@@H]1C(C)C | 45.4 µM | 53.2 µM
CCn1nc(NC(=O)c2ccncc2)c2cc3cc(C)ccc3nc21 | 4.7 µM | > 100 µM
COc1ccc(C2CC(=O)c3cnc(Nc4cc(C)cc(C)c4)nc3C2)cc1 (stereo not drawn) | 20.5 µM | 45.2 µM
COc1cc(N)c(Cl)cc1C(=O)N[C@H]1CCN(CCCOc2ccc(F)cc2)C[C@H]1OC | 48.7 µM | 89 µM
CC(C)NC(=S)N/N=C/c1cc(Br)ccc1O | 29.5 µM | > 100 µM
CC(C)(C)c1ccc(Cn2nnc3c(=O)[nH]c(C4CCCN(C(=O)Cc5cccs5)C4)nc32)cc1 (stereo not drawn) | 36 µM | 46.6 µM
C/C(=N/Nc1cc(-c2ccccc2)nc(-c2ccccc2)n1)c1ccc(O)cc1 | 9.73 µM | 12.7 µM
C=CCNC(=S)N/N=C(\C)c1ccccn1 | 23.4 µM | 45.5 µM
Cc1ccc2nc(-c3cccc(Br)c3)cc(C(=O)NC3=NCCS3)c2c1 | 27.8 µM | 43.2 µM
Oc1ccccc1-c1nnc(COc2ccccc2)o1 | 19 µM | 28.9 µM
O=C1C(=O)c2ccccc2-c2ccccc21 | 7.83 µM | 10.6 µM
CCOC(=O)c1cnc2ccc(OCC)cc2c1N1CCN(c2ccccc2)CC1 | 25.9 µM | 56.7 µM

SMILES | IC50 | IC90
O=C(Oc1c(Cl)cc(Cl)c2cccnc12)c1cccs1 | 1.28 µM | 1.38 µM
CS(=O)(=O)c1ccc([C@@H](O)[C@@H](CF)NC(=O)C(Cl)Cl)cc1 | 16.8 µM | 27.8 µM
COc1ccccc1Nc1nc(N)nc(CCl)n1 | 4.83 µM | 12.3 µM
CCc1ccc2nc(N3C(=O)C(O)=C(C(=O)c4ccco4)C3c3cccs3)sc2c1 (stereo not drawn) | 86.3 µM | 95.2 µM
COC(=O)[C@H](CCSC)NC(=O)N1CCN(c2cccc(C(F)(F)F)c2)CC1 | 29 µM | 58.8 µM
Cc1ccc(-n2cccc2C(=S)N=P(N(C)C)(N(C)C)N(C)C)cc1 | 24.6 µM | 26.1 µM
O=C(CN1CCN(c2nc(-c3ccc(F)cc3)cs2)CC1)NCc1ccc2c(c1)OCO2 | 38.1 µM | 55.6 µM
Cc1ccc(/C=C2\SC(N3CCCC3)=NC2=O)cc1 | 0.74 µM | 4.62 µM
CCc1c(C2(O)CCCCC2)[nH]c2ccc(C(F)(F)F)cc12 | 40.2 µM | > 50 µM
Cc1ccc(-c2csc3ncnc(Nc4ccc(N5CCOCC5)cc4)c23)cc1 | 23.9 µM | 26.2 µM
COc1ccc(C(=O)C[n+]2ccc3c(c2)nc(-c2cc(OC)c(OC)cc2OC)n3C)cc1 | 11.6 µM | 13.1 µM
Cc1cc(C)n(-c2nc(NCCN(C)C)c3c4c(sc3n2)CCCC4)n1 | 15.6 µM | 21.4 µM
Cc1nc2ccccc2c2nc3ccccc3n12 | 30.6 µM | 48.4 µM
COc1cc2c(cc1OC)C1(Nc3c-2c(-c2ccccc2)nn3-c2ccccc2)C(=O)Nc2ccccc21 (stereo not drawn) | 80.9 µM | > 100 µM
Cc1cc2c(ccc3c2no[n+]3[O-])nn1 | 17.4 µM | 22.8 µM
NC1=NC2(CCC(c3ccccc3)CC2)n2c(nc3ccccc32)N1 (stereo not drawn) | 32.5 µM | 43.7 µM
CC1CCC(C(C)C)C(OC(=O)Cn2c(-c3ccc(F)cc3)[n+](C)c3ccccc32)C1 (stereo not drawn) | 10.8 µM | 14.4 µM
Cc1ccc(C(=O)c2cc(C)sc2NC(=O)CN2CCN(C(=O)c3ccco3)CC2)cc1 | 14.9 µM | 27.4 µM
CNc1ccc2oc(C[C@H]3O[C@@]4(CC[C@H]3C)O[C@H]([C@H](C)C(=O)c3ccc[nH]3)[C@H](C)C[C@H]4C)nc2c1C(=O)O | 2.82 µM | 3.18 µM
CCOC(=O)c1ccc(NC(=O)C(C)Sc2nc(O)c(-c3ccccc3)c(=O)[nH]2)cc1 (stereo not drawn) | 18.4 µM | 35 µM
O=C(NNc1nc2ccccc2s1)c1ccccc1F | 39.9 µM | 59.2 µM
CCCOC(=O)/C(=C\c1ccc([N+](=O)[O-])o1)NC(=O)c1ccccc1 | 24.2 µM | > 100 µM
